{"source": "patent US4889857A", "about": "“Quinolonecarboxylic acid compounds and pharmaceutical use thereof” (Yoshitomi Pharmaceutical Industries, Ltd., priority 1987, dated 1989)", "key": {"[1]": {"test_system": "Staphylococcus aureus FDA 209P*", "experiment": "Antibacterial activity in vitro (MIC), horse blood medium", "assay_type": "cell-based", "details": "FDA209P", "protocol": "(§1) The antibacterial activities in vitro (minimum inhibitory concentration, MIC, μg/ml) of the test compounds were measured according to the standard method of the Japanese Chemotherapy Society (Chemotherapy, Vol. 23, p.1126, 1974).\n(§2) (Inoculum size: 10^6 cells/ml, Organisms with asterisk (*) were\n(§3) cultivated in a 10% horse bloodadded medium.)"}, "[2]": {"test_system": "Acinetobacter calcoaceticus ATCC 13006", "experiment": "Antibacterial activity in vitro (MIC)", "assay_type": "cell-based", "details": "ATCC13006", "protocol": "as §1, §2, §3"}, "[3]": {"test_system": "Bacillus subtilis PCT 219", "experiment": "Antibacterial activity in vitro (MIC)", "assay_type": "cell-based", "details": "PCT219", "protocol": "as §1, §2, §3"}, "[4]": {"test_system": "Citrobacter freundii IFO 12681", "experiment": "Antibacterial activity in vitro (MIC)", "assay_type": "cell-based", "details": "IFO12681, inoculum 10^6 cells/ml", "protocol": "as §1, §2, §3"}, "[5]": {"test_system": "Corynebacterium diphtheriae Tronto", "experiment": "Antibacterial activity in vitro (MIC)", "assay_type": "cell-based", "protocol": "as §1, §2, §3"}, "[6]": {"test_system": "Escherichia coli NIHJ JC-2", "experiment": "Antibacterial activity in vitro (MIC)", "assay_type": "cell-based", "details": "NIHJJC2", "protocol": "as §1, §2, §3"}, "Escherichia coli O-111": {"test_system": "Escherichia coli O-111", "experiment": "Antibacterial activity in vitro (MIC)", "assay_type": "cell-based", "details": "O111, inoculum 10^6 cells/ml", "protocol": "as §1, §2, §3"}, "Escherichia coli T-7": {"test_system": "Escherichia coli T-7", "experiment": "Antibacterial activity in vitro (MIC)", "assay_type": "cell-based", "details": "T7, inoculum 10^6 cells/ml", "protocol": "as §1, §2, §3"}, "Klebsiella pneumoniae DT": {"test_system": "Klebsiella pneumoniae DT", "experiment": "Antibacterial activity in vitro (MIC)", "assay_type": "cell-based", "protocol": "as §1, §2, §3"}, "[7]": {"test_system": "Morganella morganii IFO 3168", "experiment": "Antibacterial activity in vitro (MIC)", "assay_type": "cell-based", "details": "IFO3168", "protocol": "as §1, §2, §3"}, "[8]": {"test_system": "Pediococcus damnosus IFO 3895", "experiment": "Antibacterial activity in vitro (MIC)", "assay_type": "cell-based", "details": "IFO3895", "protocol": "as §1, §2, §3"}, "[9]": {"test_system": "Proteus mirabilis IFO 3849", "experiment": "Antibacterial activity in vitro (MIC)", "assay_type": "cell-based", "details": "IFO3849", "protocol": "as §1, §2, §3"}, "[10]": {"test_system": "Proteus vulgaris IFO 3988", "experiment": "Antibacterial activity in vitro (MIC)", "assay_type": "cell-based", "details": "IFO3988", "protocol": "as §1, §2, §3"}, "[11]": {"test_system": "Pseudomonas aeruginosa IFO 12582", "experiment": "Antibacterial activity in vitro (MIC)", "assay_type": "cell-based", "details": "IFO12582", "protocol": "as §1, §2, §3"}, "[12]": {"test_system": "Pseudomonas aeruginosa U-31", "experiment": "Antibacterial activity in vitro (MIC)", "assay_type": "cell-based", "details": "U31", "protocol": "as §1, §2, §3"}, "[13]": {"test_system": "Pseudomonas putida IFO 12996", "experiment": "Antibacterial activity in vitro (MIC)", "assay_type": "cell-based", "details": "IFO12996", "protocol": "as §1, §2, §3"}, "[14]": {"test_system": "Serratia marcescens IFO 12648", "experiment": "Antibacterial activity in vitro (MIC)", "assay_type": "cell-based", "details": "IFO12648", "protocol": "as §1, §2, §3"}, "Shigella flexneri EW-10": {"test_system": "Shigella flexneri EW-10", "experiment": "Antibacterial activity in vitro (MIC)", "assay_type": "cell-based", "details": "EW10, inoculum 10^6 cells/ml", "protocol": "as §1, §2, §3"}, "Shigella sonnei EW-33": {"test_system": "Shigella sonnei EW-33", "experiment": "Antibacterial activity in vitro (MIC)", "assay_type": "cell-based", "details": "EW33, inoculum 10^6 cells/ml", "protocol": "as §1, §2, §3"}, "[15]": {"test_system": "Shigella typhosa Boxhill-58", "experiment": "Antibacterial activity in vitro (MIC)", "assay_type": "cell-based", "protocol": "as §1, §2, §3"}, "[16]": {"test_system": "Staphylococcus aureus 1840", "experiment": "Antibacterial activity in vitro (MIC)", "assay_type": "cell-based", "protocol": "as §1, §2, §3"}, "[17]": {"test_system": "Staphylococcus aureus FDA 209P", "experiment": "Antibacterial activity in vitro (MIC)", "assay_type": "cell-based", "details": "FDA209P", "protocol": "as §1, §2, §3"}, "[18]": {"test_system": "Staphylococcus epidermidis ATCC 12228", "experiment": "Antibacterial activity in vitro (MIC)", "assay_type": "cell-based", "details": "ATCC12228", "protocol": "as §1, §2, §3"}, "[19]": {"test_system": "Streptococcus lactis IFO 12546", "experiment": "Antibacterial activity in vitro (MIC)", "assay_type": "cell-based", "details": "Lactococcus lactis, IFO12546", "protocol": "as §1, §2, §3"}, "[20]": {"test_system": "Streptococcus sp. IFO 3535", "experiment": "Antibacterial activity in vitro (MIC)", "assay_type": "cell-based", "details": "IFO3535", "protocol": "as §1, §2, §3"}, "[21]": {"test_system": "Streptococcus viridans America", "experiment": "Antibacterial activity in vitro (MIC)", "assay_type": "cell-based", "protocol": "as §1, §2, §3"}, "[22]": {"test_system": "Xanthomonas maltophilia IFO 12690", "experiment": "Antibacterial activity in vitro (MIC)", "assay_type": "cell-based", "details": "Stenotrophomonas maltophilia, IFO12690; inoculum 10^6 cells/ml", "protocol": "as §1, §2, §3"}, "E. coli KC-14 [23]": {"test_system": "E. coli KC-14", "experiment": "MIC of the infecting organism (Experiment 2)", "assay_type": "cell-based", "details": "Escherichia coli, KC14", "protocol": "(§4) Experimental infection was caused by inoculating male mice intraperitoneally with each organism. Each of the test compounds was administered orally to the mice, one hour after the inoculation. The therapeutic effect of each compounds was judged by using a 50% effective dose (ED50) from the survival rate on day 7 after injection by the Probit method as described in Proc. Soc. Exp. Biol. Med., Vol. 57, p.261-264, 1944. The Minimum inhibitory concentrations (MIC) were also measured."}, "S. aureus Smith [24]": {"test_system": "S. aureus Smith", "experiment": "MIC of the infecting organism (Experiment 2)", "assay_type": "cell-based", "details": "Staphylococcus aureus", "protocol": "as §4"}, "E. coli KC-14 [25]": {"test_system": "E. coli KC-14", "experiment": "Protective effect against experimental infection in mice", "assay_type": "in vivo", "details": "oral, 1 h after i.p. inoculation of 5.75 × 10^4 cells/mouse [488 LD50] with mucin; survival day 7; 95% confidence limit", "protocol": "as §4\n(§5) (The overnight cultures of test organisms with an asterisk (*) were\n(§6) diluted with 50% mucin and 0.5 ml of each was injected intraperitoneally\n(§7) into mice. A double asterisk (**) means a 95% confidence limit. MRSA mean\n(§8) methycillinresistant Staphylococcus aureus.)"}, "S. aureus 109(MRSA)": {"test_system": "S. aureus 109(MRSA)", "experiment": "Protective effect against experimental infection in mice", "assay_type": "in vivo", "details": "oral, 1 h after i.p. inoculation of 4.93 × 10^8 cells/mouse [5.7 LD50] with mucin; survival day 7; 95% confidence limit", "protocol": "as §4, §5, §6, §7, §8"}, "S. aureus Smith [26]": {"test_system": "S. aureus Smith", "experiment": "Protective effect against experimental infection in mice", "assay_type": "in vivo", "details": "oral, 1 h after i.p. inoculation of 2.13 × 10^6 cells/mouse [792 LD50] with mucin; survival day 7; 95% confidence limit", "protocol": "as §4, §5, §6, §7, §8"}, "S. pneumoniae Type III": {"test_system": "S. pneumoniae Type III", "experiment": "Protective effect against experimental infection in mice", "assay_type": "in vivo", "details": "oral, 1 h after i.p. inoculation of 6.0 × 10^2 cells/mouse [12 LD50]; survival day 7; 95% confidence limit", "protocol": "as §4, §5, §6, §7, §8"}, "S. pyogenes C-203": {"test_system": "S. pyogenes C-203", "experiment": "Protective effect against experimental infection in mice", "assay_type": "in vivo", "details": "oral, 1 h after i.p. inoculation of 4.42 × 10^4 cells/mouse [680 LD50]; survival day 7; 95% confidence limit", "protocol": "as §4, §5, §6, §7, §8"}}}
{"molecule": "O=C(O)c1cn(C2CC2)c2cc(N3CCNCC3)c(F)cc2c1=O", "note": "[CPFX, 1-cyclopropyl-6-fluoro-1,4-dihydro-7-(1-piperazinyl)-4-oxoquinoline-3-carboxylic acid]", "values": [{"measurement": "MIC", "setting": "[1]", "result": 0.2, "unit": "µg/mL"}, {"measurement": "MIC", "setting": "[2]", "result": 0.1, "unit": "µg/mL"}, {"measurement": "MIC", "setting": "[3]", "result": 0.025, "unit": "µg/mL"}, {"measurement": "MIC", "setting": "[4]", "result": 0.012, "unit": "µg/mL"}, {"measurement": "MIC", "setting": "[5]", "result": 0.1, "unit": "µg/mL"}, {"measurement": "MIC", "setting": "[6]", "result": 0.025, "unit": "µg/mL"}, {"measurement": "MIC", "setting": "Escherichia coli O-111", "result": 0.012, "unit": "µg/mL"}, {"measurement": "MIC", "setting": "Escherichia coli T-7", "result": 0.012, "unit": "µg/mL"}, {"measurement": "MIC", "setting": "Klebsiella pneumoniae DT", "result": 0.025, "unit": "µg/mL"}, {"measurement": "MIC", "setting": "[7]", "result": 0.025, "unit": "µg/mL"}, {"measurement": "MIC", "setting": "[8]", "result": 0.1, "unit": "µg/mL"}, {"measurement": "MIC", "setting": "[9]", "result": 0.1, "unit": "µg/mL"}, {"measurement": "MIC", "setting": "[10]", "result": 0.05, "unit": "µg/mL"}, {"measurement": "MIC", "setting": "[11]", "result": 0.2, "unit": "µg/mL"}, {"measurement": "MIC", "setting": "[12]", "result": 0.2, "unit": "µg/mL"}, {"measurement": "MIC", "setting": "[13]", "result": 0.1, "unit": "µg/mL"}, {"measurement": "MIC", "setting": "[14]", "result": 0.1, "unit": "µg/mL"}, {"measurement": "MIC", "setting": "Shigella flexneri EW-10", "result": 0.012, "unit": "µg/mL"}, {"measurement": "MIC", "setting": "Shigella sonnei EW-33", "result": "≤ 6", "unit": "ng/mL"}, {"measurement": "MIC", "setting": "[15]", "result": "≤ 6", "unit": "ng/mL"}, {"measurement": "MIC", "setting": "[16]", "result": 3.13, "unit": "µg/mL"}, {"measurement": "MIC", "setting": "[17]", "result": 0.2, "unit": "µg/mL"}, {"measurement": "MIC", "setting": "[18]", "result": 0.2, "unit": "µg/mL"}, {"measurement": "MIC", "setting": "[19]", "result": 3.13, "unit": "µg/mL"}, {"measurement": "MIC", "setting": "[20]", "result": 3.13, "unit": "µg/mL"}, {"measurement": "MIC", "setting": "[21]", "result": 3.13, "unit": "µg/mL"}, {"measurement": "MIC", "setting": "[22]", "result": 0.05, "unit": "µg/mL"}, {"measurement": "MIC", "setting": "E. coli KC-14 [23]", "result": "≤ 6", "unit": "ng/mL"}, {"measurement": "MIC", "setting": "S. aureus Smith [24]", "result": 0.1, "unit": "µg/mL"}, {"measurement": "ED50", "setting": "E. coli KC-14 [25]", "result": "0.011(0.008-0.015) mg/mouse"}, {"measurement": "ED50", "setting": "S. aureus 109(MRSA)", "result": "1.163(0.460-1.660) mg/mouse"}, {"measurement": "ED50", "setting": "S. aureus Smith [26]", "result": "0.325(0.232-0.453) mg/mouse"}, {"measurement": "ED50", "setting": "S. pneumoniae Type III", "result": "> 2", "unit": "mg/mouse"}, {"measurement": "ED50", "setting": "S. pyogenes C-203", "result": "> 2", "unit": "mg/mouse"}]}
